Assay [1] can be described thus: oral glucose tolerance test in overnight fasted rats. The following applies: single oral dose 30 min before oral glucose load 2 g/kg; Cpd. A 1 mg/kg, dapagliflozin 0.3 mg/kg, combination at same doses; non-diabetic rats, n=5/group; blood glucose up to 120 min. The format is in vivo, male Sprague Dawley rats (Crl:CD(SD)). The method, then: The following example show the beneficial effect on glycemic control of the combination of a SGLT2 inhibitor and a DPP IV inhibitor according to the present invention as compared to the respective monotherapies. All experimental protocols concerning the use of laboratory animals are reviewed by a federal Ethics Committee and approved by governmental authorities. According to this example an oral glucose tolerance test is performed in overnight fasted male Sprague Dawley rats (Crl:CD(SD)) with a body weight of about 200 g. A pre-dose blood sample is obtained by tail bleed. Blood glucose is measured with a glucometer, and the animals are randomized for blood glucose (n=5/group). Subsequently, the groups receive a single oral administration of either vehicle alone (0.5% aqueous hydroxyethylcellulose containing 0.015% Polysorbat 80) or vehicle containing either the SGLT2 inhibitor or the DPPIV inhibitor or the combination of the SGLT2 inhibitor with the DPPIV inhibitor. The animals receive an oral glucose load (2 g/kg) 30 min after compound administration. Blood glucose is measured in tail blood 30 min, 60 min, 90 min, and 120 min after the glucose challenge. Glucose excursion is quantified by calculating the reactive glucose AUC. The data are presented as mean±S.E.M. Statistical comparisons are conducted by Student's t test.
“Cpd. […]

The conditions of assay [2]: metformin on its own, in the diabetic; cited from earlier work.

The text below walks through data of patent US20110098240A1, “PHARMACEUTICAL COMPOSITION COMPRISING A SGLT2 INHIBITOR IN COMBINATION WITH A DPP-IV INHIBITOR” (BOEHRINGER INGELHEIM INTERNATIONAL GMBH, priority 2007, published 2011).

In the case of `CC#CCn1c(N2CCC[C@@H](N)C2)nc2c1c(=O)n(Cc1nc(C)c3ccccc3n1)c(=O)n2C` [Cpd. A, 1-[(4-methyl-quinazolin-2-yl)methyl]-3-methyl-7-(2-butyn-1-yl)-8-(3-(R)-amino-piperidin-1-yl)-xanthine], the “reduction of glucose excursion (reactive glucose AUC)” value in assay [1] was determined as 25%. With `CCOc1ccc(Cc2cc([C@@H]3O[C@H](CO)[C@@H](O)[C@H](O)[C@H]3O)ccc2Cl)cc1` [dapagliflozin, Dapagliflozin], the “reduction of glucose excursion (reactive glucose AUC)” value in assay [1] is 31%.

Regarding `CN(C)C(=N)N=C(N)N` [metformin], the “average improvement in the HbA1c value” in assay [2] was 1.0-1.5%.
